Read-outs that look alike come from different tables or passages of the source.

The target of data set [1] is T1, hCB2 (Homo sapiens, UniProt P34972). Briefly: In vitro binding assay using hCB2-CHO membranes, [3H]-CP-55,940 displacement (Protocol IV). Also noted: expressed in transfected cells; host or cells: CHO (hCB2-CHO, generated in-house). As to conditions: 1 h, read-out: % Displacement Protocol IV. In outline:
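Displacement of [3H]-CP-55,940 (0.75 nM) from membranes of CHO cells expressing human CB2 (25-50 μg) was measured in Tris-BSA buffer pH 7.4 with 5 mM MgCl2, 1 mM EDTA, 0.1% BSA, 1 h at 30 °C. Test compounds were at 300 nM final; nonspecific binding defined with 0.5 μM CP-55,940. Values are % displacement of specific binding.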

Data set [2] concerns the target T1, hCB2. Briefly: Agonism of CB2 receptors expressed in CHO cells, forskolin cAMP assay (Protocol IX.2). On the set-up: expressed in transfected cells; host or cells: CHO (h-CB2/CHO, G418-selected). In kind it is cell-based. As to conditions: cAMP; for hCB2 Agonism: at 10 uM. On the procedure:
(§1) IX. Assay for Determining Agonist and Antagonist Activity to CB1 and CB2 Receptors
(§2) 2. Agonism of CB1/CB2 Receptors Expressed in CHO Cells
(§3) h-CB1/CHO or h-CB2/CHO cells were grown in HAM's F12 DMEM medium (Sigma) with 10% FBS (Hyclone), 1% penicillin-streptomycin solution and 400 μg/ml of G418 (Sigma). 5000 cells were seeded per well in a 96 well plate and incubated for 24 hours at 37° C. in 5% CO2. On the day of assay, cells were washed with warm Krebs Buffer containing 0.1% fatty acid free (FAF) BSA (Sigma) and re-suspended in the same buffer containing 1 mM IBMX. Test compound or CP 55,940 as a reference compound (30 nM final concentration for CB1 testing and 10 μM of the same for CB2 testing) diluted in FFB+IBMX+Krebs buffer was added to the cells followed by forskolin addition (10 uM final concentration) and incubated for 30 minutes at room temperature. At the end of incubation, cells were lysed using lysis reagent from the cAMP estimation kit and cAMP was quantitated by chemiluminescence method described in the manufacturer's instructions (DiscoveRX). EC50 values were calculated from dose response curves by nonlinear regression analysis using PRISM software.
(In general: Cyclic AMP is a second messenger, typically raised through Gs and lowered through Gi signalling.)

The target of data set [3] is T1, hCB2. Description: Antagonism of CB2 receptors expressed in CHO cells, cAMP assay against CP 55,940 (Protocol IX.1). In kind it is cell-based. On the set-up: expressed in transfected cells; host or cells: CHO (h-CB2/CHO, G418-selected). The note with it: CHO, h-CB2/CHO cells, vs 10 nM CP 55,940. The method, then: as §1
(§4) 1. Antagonism of CB1/CB2 Receptors Expressed in CHO Cells.
h-CB1/CHO or h-CB2/CHO cells were grown in HAM's F12 DMEM medium (Sigma) with 10% FBS (Hyclone), 1% penicillin-streptomycin solution and 400 μg/ml of G418 (Sigma). 5000 cells were seeded per well in a 96 well plate and incubated for 24 hours at 37° C. in 5% CO2. On the day of assay, cells were washed with warm Krebs buffer containing 0.1% fatty acid free (FAF) BSA (Sigma) and re-suspended in the same buffer containing 1 mM IBMX. Test antagonist or reference compound (AM 251 (1-(2,4-dichlorophenyl)-5-(4-iodophenyl)-4-methyl-N-(1-piperidyl)pyrazole-3-carboxamide) for CB1 and SR144528 for CB2) diluted in FAFBSA+IBMX+Krebs buffer was added to the cells and incubated for 10 minutes at room temperature. CP 55,940 (30 nM final concentration for CB1 testing and 10 nM of the same for CB2 testing) was added to cells followed by forskolin (10 μM final concentration) and incubated for 30 minutes at room temperature. At the end of incubation, cells were lysed using lysis reagent from the cAMP estimation kit and cAMP was quantitated by the chemiluminescence method described in the manufacturer's instructions (DiscoveRX). EC50 values were calculated from dose response curves by nonlinear regression analysis using PRISM software.

Data set [4] deals with T2, CB1 (Rattus norvegicus, UniProt P20272). Briefly: Rat CB1 receptor binding using brain membrane, [3H]SR141716A displacement (Protocol I). On the set-up: CB1 receptor present in a rat brain membrane preparation; from tissue; host or cells: rat brain membrane; inhibition: dose or concentration left out as unconfirmed. The note with it: 1 h; rat brain membrane, [3H]SR141716A displacement; read-out: % Displacement Protocol I.
T2 sequence (P20272 whole entry): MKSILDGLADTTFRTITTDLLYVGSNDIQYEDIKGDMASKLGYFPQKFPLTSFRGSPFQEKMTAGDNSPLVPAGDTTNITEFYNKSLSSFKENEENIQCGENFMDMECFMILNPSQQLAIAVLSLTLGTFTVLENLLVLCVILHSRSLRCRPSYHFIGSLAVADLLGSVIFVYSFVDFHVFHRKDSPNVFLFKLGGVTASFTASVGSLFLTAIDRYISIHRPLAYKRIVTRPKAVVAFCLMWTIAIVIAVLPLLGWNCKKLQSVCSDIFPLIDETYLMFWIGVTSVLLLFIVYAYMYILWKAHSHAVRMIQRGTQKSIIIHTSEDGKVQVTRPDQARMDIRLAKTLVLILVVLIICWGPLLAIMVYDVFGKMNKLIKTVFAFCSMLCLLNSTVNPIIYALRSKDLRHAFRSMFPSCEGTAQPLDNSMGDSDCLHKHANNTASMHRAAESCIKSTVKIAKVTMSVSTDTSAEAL

Data set [5] concerns the target T3, hCB1 (Homo sapiens, UniProt P21554). Description: Agonism of CB1 receptors expressed in CHO cells, forskolin cAMP assay (Protocol IX.2). The note with it: CHO, at 10 uM, h-CB1/CHO cells, cAMP. Also noted: expressed in transfected cells; host or cells: CHO (h-CB1/CHO, G418-selected). In kind it is cell-based. On the procedure:
as §1, §2
as §3, with “Test compound or CP 55,940 as a reference compound (30 nM final concentration for CB1 testing and 10 μM of the same for CB2 testing) diluted in FFB+IBMX+Krebs buffer was added to the cells followed by forskolin addition (10 uM final concentration) and incubated for 30 minutes at room temperature.” left out

Data set [6] has as its target T3, hCB1. Description: Antagonism of CB1 receptors expressed in CHO cells, cAMP assay against CP 55,940 (Protocol IX.1). Also noted: expressed in transfected cells; host or cells: CHO (h-CB1/CHO, G418-selected). As to conditions: at 10 uM, h-CB1/CHO cells, cAMP, vs 30 nM CP 55,940; read-out: hCB1 Antagonism. In kind it is cell-based. On the procedure:
as §1, §4
h-CB1/CHO or h-CB2/CHO cells were grown in HAM's F12 DMEM medium (Sigma) with 10% FBS (Hyclone), 1% penicillin-streptomycin solution and 400 μg/ml of G418 (Sigma). 5000 cells were seeded per well in a 96 well plate and incubated for 24 hours at 37° C. in 5% CO2. On the day of assay, cells were washed with warm Krebs buffer containing 0.1% fatty acid free (FAF) BSA (Sigma) and re-suspended in the same buffer containing 1 mM IBMX. […] At the end of incubation, cells were lysed using lysis reagent from the cAMP estimation kit and cAMP was quantitated by the chemiluminescence method described in the manufacturer's instructions (DiscoveRX). EC50 values were calculated from dose response curves by nonlinear regression analysis using PRISM software.

Data set [7] has as its target T2, CB1. Description: GTPγS binding assay, CB1 functional assay in rat cerebellar membrane (Protocol VIII). Also noted: 10 μg rat cerebellum membrane; from tissue; host or cells: rat cerebellum membrane, prepared in-house. In kind it is biochemical. In outline: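 Rat cerebellar membranes (10 μg) incubated 1 h at 30 °C with 0.2 nM [35S]GTPγS, 50 μM GDP, and compound at 1 μM or 300 nM, alone or with 1 μM WIN 55,212-2, in Tris/MgCl2/EGTA/NaCl pH 7.4. Filter-bound radioactivity counted; percent stimulation calculated against basal specific binding (nonspecific defined by 10 μM GTPγS).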
Background: Binding of GTPγS marks nucleotide exchange on a G protein.

The mark [8] stands for this setting: hCB2-CHO membranes, [3H]-CP-55,940 displacement.
[9] abbreviates: hCB2 Agonism IC50, h-CB2/CHO cells.
[10] abbreviates: h-CB2/CHO cells, read-out: hCB2 Agonism IC50.

T1 sequence (P34972 whole entry): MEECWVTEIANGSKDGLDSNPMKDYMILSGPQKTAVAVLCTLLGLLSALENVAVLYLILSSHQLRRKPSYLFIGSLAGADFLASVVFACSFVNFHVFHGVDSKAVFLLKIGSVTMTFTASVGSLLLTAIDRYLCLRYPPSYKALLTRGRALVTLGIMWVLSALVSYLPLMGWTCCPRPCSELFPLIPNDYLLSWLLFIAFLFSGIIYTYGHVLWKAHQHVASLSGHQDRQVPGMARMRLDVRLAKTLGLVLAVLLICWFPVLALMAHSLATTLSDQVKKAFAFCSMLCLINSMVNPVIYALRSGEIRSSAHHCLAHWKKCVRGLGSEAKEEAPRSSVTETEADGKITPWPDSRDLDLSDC
T3 sequence (P21554 whole entry): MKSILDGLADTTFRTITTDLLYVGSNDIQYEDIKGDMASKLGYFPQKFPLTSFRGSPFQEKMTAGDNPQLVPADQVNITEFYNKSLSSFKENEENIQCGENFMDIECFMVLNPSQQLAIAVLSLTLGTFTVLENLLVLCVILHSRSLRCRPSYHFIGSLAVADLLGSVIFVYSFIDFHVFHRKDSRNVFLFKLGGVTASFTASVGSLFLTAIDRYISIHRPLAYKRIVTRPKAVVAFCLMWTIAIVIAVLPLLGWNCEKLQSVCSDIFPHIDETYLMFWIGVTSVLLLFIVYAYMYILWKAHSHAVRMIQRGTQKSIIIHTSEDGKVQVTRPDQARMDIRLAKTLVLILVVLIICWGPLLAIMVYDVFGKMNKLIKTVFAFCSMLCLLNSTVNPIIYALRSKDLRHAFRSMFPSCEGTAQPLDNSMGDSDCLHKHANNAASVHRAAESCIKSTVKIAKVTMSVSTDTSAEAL

Regarding `O=C(NC12CC3CC(CC(C3)C1)C2)c1nn(-c2ccc(Cl)cc2Cl)c2c1C1CCC2c2ccccc21` (stereo not drawn) [Example 506, N(12)-(Adamantan-1yl)-10-(2,4-dichlorophenyl)-10,11-diazatetracyclo[6.5.2.0^2,7.0^9,13]pentadeca-2,4,6,9(13),11-pentaene-12-carboxamide], the melting point lay within 120 to 124 °C. For the same compound, the inhibition at 0.3 µM at hCB2 [1] turned out to be 52.4%. Besides, at hCB2 [2] (h-CB2/CHO cells), the “hCB2 Agonism” value was determined as 0% at 10 uM. The compound further yielded an inhibition at 10 µM on hCB2 [3] of 80.2%.
Consider `O=C(NNc1ccc(F)cc1F)c1nn(-c2ccc(Cl)cc2Cl)c2c1C1CCC2C1` (stereo not drawn) [Example 265, N(3)-[(2,4-Difluorophenyl)amino]-1-(2,4-dichlorophenyl)-4,5,6,7-tetrahydro-1H-4,7-methano-indazole-3-carboxamide], for which the melting point lay within 157 to 160 °C. On hCB2 [1] (setting [8]), the inhibition at 0.3 µM turned out to be 70.2%. The same compound registered an IC50 against hCB2 [2] (setting [9]) of 23.1 nM. The inhibition at CB1 [4] stood at 31.6%. Also, the inhibition at 10 µM at hCB2 [3] is 27.2%.
The compound `O=C(NNc1ccc(Cl)cc1Cl)c1nn(-c2ccc(F)cc2F)c2c1C1CC3CC(C1)CC2C3` [Example 150, N(7)-(2,4-Dichlorophenylamino)-5-(2,4-difluorophenyl)-5,6-diazatetracyclo[7.3.1.1^3,11.0^4,8]tetradeca-4(8),6-diene-7-carboxamide] displayed a melting point of 162 °C. Also, at hCB1 [5], the activation at 10 µM was determined as 61.1%. Further, the inhibition at 10 µM on hCB1 [6] is 42.9%.
Regarding `O=C(NN(C1CCCCC1)C1CCCCC1)c1nn(-c2ccc(Cl)cc2Cl)c2c1C1CCC2C1` (stereo not drawn) [Example 239, N(3)-(N,N-Dicyclohexylamino)-1-(2,4-dichlorophenyl)-4,5,6,7-tetrahydro-1H-4,7-methano-indazole-3-carboxamide], the melting point lay in the range of 127 to 130 °C. Besides, the inhibition at 0.3 µM at hCB2 [1] (setting [8]) turned out to be 77.1%. The compound also gave an IC50 at hCB2 [2] (setting [9]) of 42.5 nM. The inhibition at CB1 [4] turned out to be 23.5%. The inhibition at 10 µM on hCB2 [3] is 64.1%.
Take `CCCCCNC(=O)c1nn(-c2ccc(F)cc2F)c2c1C1CCC2C1` (stereo not drawn) [Example 306, N5-n-Pentyl-3-(2,4-difluorophenyl)-3,4-diazatricyclo[5.2.1.0^2,6]deca-2(6),4-diene-5-carboxamide]: the melting point was 75 to 78 °C. The inhibition at 0.3 µM on hCB2 [1] came to 62.9%. Besides, the concentration for half-maximal inhibition (IC50) at hCB2 [2] (setting [10]) came out at 11.9 nM. At hCB2 [3], this compound yielded an inhibition at 10 µM of 14.4%.
The compound `O=C(NCC1CCCCC1)c1nn(-c2ccc(Cl)cc2Cl)c2c1C1CCC2C1` (stereo not drawn) [Example 238, N(3)-Cyclohexylmethyl-1-(2,4-dichlorophenyl)-4,5,6,7-tetrahydro-1H-4,7-methano-indazole-3-carboxamide] registered a melting point of 111 to 113 °C. On CB1 [7] (1 h, GTPγS binding over basal, rat cerebellar membrane, tested at 1 uM, read-out: Per Se % Stimulation), the activation at 1 µM is 0.4%. The inhibition at 1 µM at CB1 [7] (GTPγS binding, tested at 1 uM in presence of 1 μM WIN 55,212-2, read-out: % Inhibition of WIN-55212-2 induced stimulation) was found to be 59.1%. Moreover, the “hCB2 Agonism” value on hCB2 [2] (h-CB2/CHO cells) is reported as 55.05% at. Moreover, the inhibition at CB1 [4] is 73.9%. In addition, the inhibition at 10 µM at hCB2 [3] amounted to 24.5%.
Take `O=C(NC1CCCCC1)c1nn(-c2ccccc2Cl)c2c1C1CCC2C1` (stereo not drawn) [Example 206, N(3)-Cyclohexyl-1-(2-chlorophenyl)-4,5,6,7-tetrahydro-1H-4,7-methano-indazole-3-carboxamide]: the melting point came out at 171 °C. Further, the inhibition at 0.3 µM on hCB2 [1] (setting [8]) is 71.9%. Further, half-maximal inhibition against hCB2 [2] (setting [9]) (IC50) required 10.5 nM. In addition, the inhibition on CB1 [4] was found to be 27.4%. On hCB2 [3], this compound gave an inhibition at 10 µM of 16%.
`O=C(NCc1ccccc1Cl)c1nn(-c2ccc(F)cc2F)c2c1C1CC3CC(C1)CC2C3` [Example 149, N(7)-(2-Chlorobenzyl)-5-(2,4-difluorophenyl)-5,6-diazatetracyclo[7.3.1.1^3,11.0^4,8]tetradeca-4(8),6-diene-7-carboxamide]: the melting point was determined as 136 °C. Also, the activation at 10 µM on hCB1 [5] came out at 79.9%. Moreover, the inhibition at 10 µM on hCB1 [6] turned out to be 16%.
Turning to `O=C(NCc1ccc(Cl)cc1Cl)c1nn(-c2ccc(Cl)cc2)c2c1C1CCC2C1` (stereo not drawn) [Example 223, N(3)-(2,4-Dichlorobenzyl)-1-(4-chlorophenyl)-4,5,6,7-tetrahydro-1H-4,7-methano-indazole-3-carboxamide], the melting point fell in the range of 108 to 111 °C. Further, at hCB2 [1] (setting [8]), the inhibition at 0.3 µM was 59.5%. It took 1.49 nM to reach half-maximal inhibition at hCB2 [2] (setting [9]) (IC50). The inhibition at 10 µM on hCB1 [6] was 0%. The inhibition at CB1 [4] amounted to 52.1%. This compound also yielded an inhibition at 10 µM against hCB2 [3] of 24.4%.
`O=C(NCc1ccc(Cl)cc1Cl)c1nn(-c2ccc(F)cc2F)c2c1C1CCC2C1` (stereo not drawn) [Example 307, N5-(2,4-Dichlorobenzyl)-3-(2,4-difluorophenyl)-3,4-diazatricyclo[5.2.1.0^2,6]deca-2(6),4-diene-5-carboxamide] had a melting point of 105 to 108 °C. Moreover, the inhibition at 0.3 µM at hCB2 [1] was determined as 70.3%. Further, the IC50 at hCB2 [2] (setting [10]) worked out at 0.81 nM. On hCB2 [3], this compound showed an inhibition at 10 µM of 21.6%.

A word on the melting point: it is the temperature, or range, at which the solid turns liquid. What is called IC50 is the concentration that inhibits the measured activity by half.

The record behind these values is patent US7923465B2, “Cannabinoid receptor ligands, pharmaceutical compositions containing them, and process for their preparation” (priority 2005, dated 2011).
